Results taken from patent US11839613B2, “Pyrimidine derivatives as PGE2 receptor modulators” (IDORSIA PHARMACEUTICALS LTD, priority 2017, dated 2023).
pIC50: −log10 of the molar value.

Experiments:
[1] = biological target: PTGER2 (EP2) (Homo sapiens (Human), UniProt P43116); test: hEP2 b-arrestin assay (PathHunter HEK 293 PTGER2 b-arrestin cells); type: cell-based; details: antagonistic activity, beta-arrestin assay; read-out: hEP2 b-arr IC50
Protocol: Plate is pre-incubated 15 minutes at 37° C. Then five microliters of PGE2 (final conc. 5 μM) are transferred into the assay plate. Plate is incubated 120 minutes at 37° C.
(each concentration is measured in duplicate)

[2] = biological target: EP2 (Homo sapiens (Human), UniProt P43116); test: hEP2 cAMP assay (SF295 glioblastoma cells, HTRF cAMP); type: cell-based; details: antagonistic activity
EP2, sequence (P43116 whole entry): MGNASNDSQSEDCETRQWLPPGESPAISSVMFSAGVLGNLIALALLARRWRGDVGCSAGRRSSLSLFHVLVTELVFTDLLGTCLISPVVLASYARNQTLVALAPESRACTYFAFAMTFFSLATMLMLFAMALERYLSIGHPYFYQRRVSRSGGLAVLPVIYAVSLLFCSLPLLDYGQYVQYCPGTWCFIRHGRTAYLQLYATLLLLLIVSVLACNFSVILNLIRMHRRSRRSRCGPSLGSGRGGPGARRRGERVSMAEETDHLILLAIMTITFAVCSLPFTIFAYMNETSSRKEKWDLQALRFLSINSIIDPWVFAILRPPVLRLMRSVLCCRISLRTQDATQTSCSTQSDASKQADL
How it was run: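 PGE2-driven cAMP accumulation was measured by HTRF in SF295 cells, which express endogenous EP2 only. Cells in assay buffer with 2 mM IBMX were pre-incubated 45 min at RT, then incubated 30 min at RT. Detection used competition between cellular cAMP and d2-cAMP for a cryptate anti-cAMP antibody.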

[3] = biological target: EP4 (Homo sapiens (Human), UniProt P35408); test: hEP4 cAMP assay (BT549 breast cancer cells, HTRF cAMP); type: cell-based; details: antagonistic activity, PGE2 6 nM
EP4, sequence (P35408 whole entry): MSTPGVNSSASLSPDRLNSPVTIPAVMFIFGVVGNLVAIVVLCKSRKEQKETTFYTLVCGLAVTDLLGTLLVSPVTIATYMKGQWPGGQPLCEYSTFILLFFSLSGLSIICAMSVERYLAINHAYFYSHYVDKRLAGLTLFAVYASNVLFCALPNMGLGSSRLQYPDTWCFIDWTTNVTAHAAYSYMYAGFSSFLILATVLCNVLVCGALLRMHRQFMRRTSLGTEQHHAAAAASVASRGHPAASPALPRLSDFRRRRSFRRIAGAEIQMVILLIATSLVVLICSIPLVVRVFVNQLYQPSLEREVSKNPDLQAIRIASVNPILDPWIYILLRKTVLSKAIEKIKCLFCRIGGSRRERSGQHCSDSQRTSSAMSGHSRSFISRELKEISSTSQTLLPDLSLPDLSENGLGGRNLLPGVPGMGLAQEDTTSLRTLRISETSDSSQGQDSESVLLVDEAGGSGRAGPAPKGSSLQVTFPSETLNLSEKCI
How it was run: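 cAMP accumulation quantified by HTRF competition between cellular cAMP and d2-labeled cAMP for cryptate anti-cAMP antibody. Cells: endogenously EP4-expressing BT549, buffer with 2 mM IBMX; 45 min RT compound preincubation preceded 30 min RT challenge with PGE2 at 6 nM final.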

[4] = biological target: PTGER4 (EP4) (Homo sapiens (Human), UniProt P35408); test: cell-based
PTGER4 (EP4), sequence (P35408 whole entry): as above

PTGER2 (EP2), sequence (P43116 whole entry): as the sequence (P43116 whole entry) above

Structure (SMILES) | pIC50 [1] | pIC50 [2] | pIC50 [3] | pIC50 [4]
CCOc1cc(-c2cc(NCCc3cc4ccccc4cc3OC)ncn2)sc1C(=O)O [Ex 9, 3-Ethoxy-5-{6-[2-(3-methoxy-naphthalen-2-yl)-ethylamino]-pyrimidin-4-yl}-thiophene-2-carboxylic acid] | 7.23 | 7.17 | 8.22 | 8.22
CCCc1cc(-c2cc(NCCc3ccc4ccccc4c3C)ncn2)ccc1C(=O)O [Ex 28, 4-{6-[2-(1-Methyl-naphthalen-2-yl)-ethylamino]-pyrimidin-4-yl}-2-propyl-benzoic acid] | 6.87 | 7.13 | 7.21 | 7.02
CCOc1cc(-c2cc(NCCc3ccc4[nH]ccc4c3)ncn2)sc1C(=O)O [Ex 32, 3-Ethoxy-5-{6-[2-(1H-indol-5-yl)-ethylamino]-pyrimidin-4-yl}-thiophene-2-carboxylic acid] | 6.70 | 6.79 | 7.74 | 7.25
O=C(O)c1cc2cc(-c3cc(NCCc4ccc5sccc5c4)ncn3)ccc2o1 [Ex 38, 5-[6-(2-Benzo[b]thiophen-5-yl-ethylamino)-pyrimidin-4-yl]-benzofuran-2-carboxylic acid] | 6.65 | 6.68 | 7.55 | 6.91
CCOc1cc(-c2cc(NCCc3cc4ccccc4cc3C)ncn2)sc1C(=O)O [Ex 40, 3-Ethoxy-5-{6-[2-(3-methyl-naphthalen-2-yl)-ethylamino]-pyrimidin-4-yl}-thiophene-2-carboxylic acid] | 6.90 | 6.64 | 7.70 | 7.60
CCOc1cc(-c2cc(NCCc3ccc4c(c3)OCCO4)ncn2)sc1C(=O)O [Ex 41, 5-{6-[2-(2,3-Dihydro-benzo[1,4]dioxin-6-yl)-ethylamino]-pyrimidin-4-yl}-3-ethoxy-thiophene-2-carboxylic acid] | 6.39 | 6.79 | 7.68 | 7.52
CCOc1cc(-c2cc(NCCc3ccc4ccn(C)c4c3)ncn2)sc1C(=O)O [Ex 42, 3-Ethoxy-5-{6-[2-(1-methyl-1H-indol-6-yl)-ethylamino]-pyrimidin-4-yl}-thiophene-2-carboxylic acid] | 6.62 | 6.86 | 7.68 | 7.60
CCOc1cc(-c2cc(NCCc3ccc4scc(C)c4c3)ncn2)sc1C(=O)O [Ex 47, 3-Ethoxy-5-{6-[2-(3-methyl-benzo[b]thiophen-5-yl)-ethylamino]-pyrimidin-4-yl}-thiophene-2-carboxylic acid] | 7.35 | 7.04 | 7.66 | 7.07
CCOc1cc(-c2cc(NCCc3cc(Cl)c4c(c3)OCCO4)ncn2)sc1C(=O)O [Ex 51, 5-{6-[2-(8-Chloro-2,3-dihydro-benzo[1,4]dioxin-6-yl)-ethylamino]-pyrimidin-4-yl}-3-ethoxy-thiophene-2-carboxylic acid] | 6.64 | 6.68 | 7.60 | 7.66
CCOc1cc(-c2cc(NCCc3c(F)c(F)c4cc(C)oc4c3OC)ncn2)sc1C(=O)O [Ex 55, 5-{6-[2-(4,5-Difluoro-7-methoxy-2-methyl-benzofuran-6-yl)-ethylamino]-pyrimidin-4-yl}-3-ethoxy-thiophene-2-carboxylic acid] | 6.07 | 6.47 | 7.80 | 7.60
CCOc1cc(-c2cc(NCCc3ccc4c(c3)CCCO4)ncn2)sc1C(=O)O [Ex 56, 5-[6-(2-Chroman-6-yl-ethylamino)-pyrimidin-4-yl]-3-ethoxy-thiophene-2-carboxylic acid] | 6.27 | 6.72 | 7.55 | 7.57
CCOc1cc(-c2cc(NCCc3ccc4ccccc4c3C)ncn2)sc1CCC(=O)O [Ex 57, 3-(3-Ethoxy-5-{6-[2-(1-methyl-naphthalen-2-yl)-ethylamino]-pyrimidin-4-yl}-thiophen-2-yl)-propionic acid] | 6.71 | 6.72 | 7.55 | 7.47
CCOc1cc(-c2cc(NCCc3ccc4c(c3)OCC4)ncn2)sc1C(=O)O [Ex 67, 5-{6-[2-(2,3-Dihydro-benzofuran-6-yl)-ethylamino]-pyrimidin-4-yl}-3-ethoxy-thiophene-2-carboxylic acid] | 6.91 | 6.96 | 7.44 | 7.40
CCCc1cc(-c2cc(NCCc3ccc4ccccc4c3C)ncn2)cc(F)c1C(=O)O [Ex 74, 2-Fluoro-4-{6-[2-(1-methyl-naphthalen-2-yl)-ethylamino]-pyrimidin-4-yl}-6-propyl-benzoic acid] | 6.35 | 6.82 | 7.40 | 6.59
Cc1c(CCNc2cc(-c3ccc(C(=O)O)c(CC(C)C)c3)ncn2)ccc2ccccc12 [Ex 76, 2-Isobutyl-4-{6-[2-(1-methyl-naphthalen-2-yl)-ethylamino]-pyrimidin-4-yl}-benzoic acid] | 6.44 | 6.66 | 7.38 | 6.92
CCOc1cc(-c2cc(NCCc3cc4c(cc3SC)OCCO4)ncn2)sc1C(=O)O [Ex 78, 3-Ethoxy-5-{6-[2-(7-methylsulfanyl-2,3-dihydro-benzo[1,4]dioxin-6-yl)-ethylamino]-pyrimidin-4-yl}-thiophene-2-carboxylic acid] | 6.85 | 6.66 | 7.36 | 7.68
COc1cc2c(cc1CCNc1cc(-c3ccc4cc(C(=O)O)oc4c3)ncn1)OCCO2 [Ex 81, 6-{6-[2-(7-Methoxy-2,3-dihydro-benzo[1,4]dioxin-6-yl)-ethylamino]-pyrimidin-4-yl}-benzofuran-2-carboxylic acid] | 6.91 | 6.91 | 6.79 | 5.74
CCOc1cc(-c2cc(NCCc3cc4cccnc4cc3F)ncn2)sc1C(=N)NO [Example 347, 3-Ethoxy-5-{6-[2-(7-fluoro-quinolin-6-yl)-ethylamino]-pyrimidin-4-yl}-N-hydroxy-thiophene-2-carboxamidine] |  | 6.31 | 6.76 | 7.51

Now those with a higher pIC50 [2], led by results:

pIC50 [1] | pIC50 [2] | pIC50 [3] | pIC50 [4] | Structure (SMILES)
7.41 | 7.55 | 8.52 | 8.30 | CCOc1cc(-c2cc(NCCc3ccc4sccc4c3)ncn2)sc1C(=O)O [Ex 5, 5-[6-(2-Benzo[b]thiophen-5-yl-ethylamino)-pyrimidin-4-yl]-3-ethoxy-thiophene-2-carboxylic acid]
8.30 | 9.00 | 8.22 | 7.66 | CCOc1cc(-c2cc(NCCc3c(OC)cc4occc4c3C)ncn2)sc1C(=O)O [Ex 8, 3-Ethoxy-5-{6-[2-(6-methoxy-4-methyl-benzofuran-5-yl)-ethylamino]-pyrimidin-4-yl}-thiophene-2-carboxylic acid]
8.15 | 8.52 | 8.15 | 7.70 | CCOc1cc(-c2cc(NCCc3cc4ccoc4cc3OC)ncn2)sc1C(=O)O [Ex 12, 3-Ethoxy-5-{6-[2-(6-methoxy-benzofuran-5-yl)-ethylamino]-pyrimidin-4-yl}-thiophene-2-carboxylic acid]
7.92 | 7.82 | 8.10 | 8.05 | CCOc1cc(-c2cc(NCCc3cc4ccoc4cc3F)ncn2)sc1C(=O)O [Ex 13, 3-Ethoxy-5-{6-[2-(6-fluoro-benzofuran-5-yl)-ethylamino]-pyrimidin-4-yl}-thiophene-2-carboxylic acid]
8.22 | 8.40 | 8.00 | 7.15 | COc1cc2sccc2cc1CCNc1cc(-c2ccc(C(=O)O)c(SC)c2)ncn1 [Ex 18, 4-{6-[2-(6-Methoxy-benzo[b]thiophen-5-yl)-ethylamino]-pyrimidin-4-yl}-2-methylsulfanyl-benzoic acid]
7.14 | 7.28 | 7.82 | 7.74 | CCOc1cc(-c2cc(NCCc3ccc4cc[nH]c4c3)ncn2)sc1C(=O)O [Ex 24, 3-Ethoxy-5-{6-[2-(1H-indol-6-yl)-ethylamino]-pyrimidin-4-yl}-thiophene-2-carboxylic acid]
7.54 | 7.85 | 7.77 | 7.29 | CCOc1cc(-c2cc(NCCc3cc4c(cc3C)OCCO4)ncn2)sc1C(=O)O [Ex 30, 3-Ethoxy-5-{6-[2-(7-methyl-2,3-dihydro-benzo[1,4]dioxin-6-yl)-ethylamino]-pyrimidin-4-yl}-thiophene-2-carboxylic acid]
8.22 | 8.10 | 7.74 | 7.60 | CCOc1cc(-c2cc(NCCc3cc4ccsc4cc3C)ncn2)sc1C(=O)O [Ex 34, 3-Ethoxy-5-{6-[2-(6-methyl-benzo[b]thiophen-5-yl)-ethylamino]-pyrimidin-4-yl}-thiophene-2-carboxylic acid]
8.40 | 8.70 | 7.72 | 7.85 | CCOc1cc2c(cc1CCNc1cc(-c3cc(OCC)c(C(=O)O)s3)ncn1)OCCO2 [Ex 39, 3-Ethoxy-5-{6-[2-(7-ethoxy-2,3-dihydro-benzo[1,4]dioxin-6-yl)-ethylamino]-pyrimidin-4-yl}-thiophene-2-carboxylic acid]
